Data published in patent US12606568B2, “SMARCA degraders and uses thereof” (Kymera Therapeutics, Inc., priority 2020, dated 2026).

Legend:
Type in all cases: cell-based
[1] = target: T1, SMARCA4 (Homo sapiens, UniProt P51532); test: SMARCA4 Western blot MV4-11 degradation; details: 24 h; for Dmax: MV4-11, MV4-11 cells, read-out: SMARCA4 MSD MV411 degradation 24 h: average Dmax %; for DC50: MV4-11 cells, read-out: SMARCA4 MSD MV411 degradation 24 h: Mean external-Abs DC50
T1 construct: SMARCA2 and SMARCA4 protein degradation in MV4-11 cells; endogenous in cells; host or cells: MV4-11
T1 sequence (P51532 whole entry): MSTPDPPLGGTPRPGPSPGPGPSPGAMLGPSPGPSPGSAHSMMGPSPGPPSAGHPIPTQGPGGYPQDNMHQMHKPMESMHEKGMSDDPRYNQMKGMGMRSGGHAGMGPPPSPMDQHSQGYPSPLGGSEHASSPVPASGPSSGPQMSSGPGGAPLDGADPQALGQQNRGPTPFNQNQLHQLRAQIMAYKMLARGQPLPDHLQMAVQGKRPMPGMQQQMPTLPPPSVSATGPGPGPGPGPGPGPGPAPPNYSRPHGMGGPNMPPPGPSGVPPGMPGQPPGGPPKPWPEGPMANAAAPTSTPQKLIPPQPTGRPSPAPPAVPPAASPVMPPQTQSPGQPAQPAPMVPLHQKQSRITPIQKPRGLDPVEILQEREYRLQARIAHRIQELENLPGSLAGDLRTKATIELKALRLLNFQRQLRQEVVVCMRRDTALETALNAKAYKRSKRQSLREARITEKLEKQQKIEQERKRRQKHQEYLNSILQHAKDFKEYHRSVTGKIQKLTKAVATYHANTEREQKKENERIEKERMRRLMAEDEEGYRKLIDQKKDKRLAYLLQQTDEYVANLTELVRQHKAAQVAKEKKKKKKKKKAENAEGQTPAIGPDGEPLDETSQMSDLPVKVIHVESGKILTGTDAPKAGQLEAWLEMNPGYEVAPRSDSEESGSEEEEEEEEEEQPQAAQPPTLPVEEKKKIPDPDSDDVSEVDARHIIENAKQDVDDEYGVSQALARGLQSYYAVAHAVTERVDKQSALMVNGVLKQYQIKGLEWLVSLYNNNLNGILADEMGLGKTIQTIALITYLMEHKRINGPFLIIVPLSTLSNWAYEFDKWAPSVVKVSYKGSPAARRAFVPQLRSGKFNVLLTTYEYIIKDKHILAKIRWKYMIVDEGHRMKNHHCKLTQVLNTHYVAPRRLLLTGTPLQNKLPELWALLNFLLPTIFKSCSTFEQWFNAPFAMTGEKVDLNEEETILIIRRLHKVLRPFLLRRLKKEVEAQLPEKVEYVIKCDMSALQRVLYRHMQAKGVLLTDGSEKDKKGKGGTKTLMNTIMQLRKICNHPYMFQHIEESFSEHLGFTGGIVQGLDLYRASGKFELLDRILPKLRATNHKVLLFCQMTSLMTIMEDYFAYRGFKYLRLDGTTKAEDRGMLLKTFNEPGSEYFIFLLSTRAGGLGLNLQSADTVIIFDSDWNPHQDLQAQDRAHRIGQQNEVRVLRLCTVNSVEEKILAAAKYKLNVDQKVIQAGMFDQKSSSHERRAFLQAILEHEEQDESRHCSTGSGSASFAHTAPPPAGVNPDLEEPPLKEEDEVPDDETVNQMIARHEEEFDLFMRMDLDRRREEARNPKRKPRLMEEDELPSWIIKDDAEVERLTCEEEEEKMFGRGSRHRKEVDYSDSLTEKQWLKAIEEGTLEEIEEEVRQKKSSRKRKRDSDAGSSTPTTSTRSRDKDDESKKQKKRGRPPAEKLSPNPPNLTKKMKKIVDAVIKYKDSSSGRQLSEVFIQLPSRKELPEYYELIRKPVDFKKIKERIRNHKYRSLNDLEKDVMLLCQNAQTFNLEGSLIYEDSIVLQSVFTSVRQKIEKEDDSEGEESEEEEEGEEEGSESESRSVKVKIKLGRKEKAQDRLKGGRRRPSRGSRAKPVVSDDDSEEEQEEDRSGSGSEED
Protocol: Example 54. SMARCA2 and SMARCA 4 Western Blot MV4-11 Degradation
Cells were seeded into 6-well plates (MV4-11: 4×10^6 cells/well/1 ml) and 1 ml of 2× compound solution was added into the well to make the final concentration and the plates were mixed well and incubated for 24 hours (No cytotoxicity was observed). The cell were collected with media and spun at 3000 rpm for 5 minutes. The supernatant was aspirated and the well and the cells were washed with cold PBS once and combined for centrifugation again; the supernatant aspirated again. 200 ul pre-chilled RIPA lysis buffer (Boston BioProducts BP-115D) with protease/phosphatase inhibitor (Roche 05892791001/Roche 04906837001) was directly added into the tube to lyze the cells for 20 minutes on ice. The cell lysate were collected into EP tubes and spun at 13000 rpm for 20 minutes and 72 ul supernatant was transferred to a fresh EP tube containing 18 ul of 5× loading buffer (Beyotime Bio P0015) to make the loading samples. The samples were heated to 100° C. for 10 minutes and cooled to RT and microcentrifuged. 20 ul of samples were loaded onto SDS-PAGE gel (Novex, WG1402BOX) and the gel was run at 80 V for 20 minutes and 120 V for 1.5 hours. The samples were electrotransfer to a NC membrane using wet-transfer method with 250 mA for 2.5 hours. The membrane was blocked with LICOR blocking buffer (LI-COR, 927-50000) for 1 hour. The membrane was washed three times with TBST (CST #9997S), 5 minutes each. Incubation was performed with primary antibody prepared in blocking buffer with 0.1% Tween-20 (Solarbio, P8220) at 4° C. overnight (Anti-SMARCA2/BRM antibody (ab15597) 1:500; Anti-BRG1 antibody [EPR3912] (ab108318) 1:1000; Rabbit anti-Baf180 antibody [EPR15860] (Abcam, ab196022) 1:1000; mouse anti-beta-Actin (8H10D10) (CST #3700) 1:10000). The membrane was washed three times with TBST, 5 minutes each. Incubation with secondary antibody was performed for 1 hour at RT (anti-rabbit IgG (Licor, 926-32211) 1:5000; anti-mouse IgG (LI-COR, 926-68070) 1:5000). The membrane was washed three times with TBST, 5 minutes each and lastly the LiCOR was read.
(§1) The letter codes for SMARCA degradation potency (DC50) include: A (<100 nM), B (100-500 nM), C (501-1000 nM), and D (>1000 nM). The letter codes for the percentage of SMARCA degradation after 24 hours (Dmax %) include: A (>90% degradation), B (>70-90% degradation), C (50-70% degradation), and D (<50% degradation).

[2] = target: T2, SMARCA2 (Homo sapiens, UniProt P51531); test: MSD SMARCA2 degradation in A549 cell line; design: endogenous in cells; details: 24 h; for Dmax: A549, A549 cells; for DC50: A549 cells, read-out: SMARCA2 MSD A549 degradation 24 h: Average external-Abs DC50
T2 sequence (P51531 whole entry): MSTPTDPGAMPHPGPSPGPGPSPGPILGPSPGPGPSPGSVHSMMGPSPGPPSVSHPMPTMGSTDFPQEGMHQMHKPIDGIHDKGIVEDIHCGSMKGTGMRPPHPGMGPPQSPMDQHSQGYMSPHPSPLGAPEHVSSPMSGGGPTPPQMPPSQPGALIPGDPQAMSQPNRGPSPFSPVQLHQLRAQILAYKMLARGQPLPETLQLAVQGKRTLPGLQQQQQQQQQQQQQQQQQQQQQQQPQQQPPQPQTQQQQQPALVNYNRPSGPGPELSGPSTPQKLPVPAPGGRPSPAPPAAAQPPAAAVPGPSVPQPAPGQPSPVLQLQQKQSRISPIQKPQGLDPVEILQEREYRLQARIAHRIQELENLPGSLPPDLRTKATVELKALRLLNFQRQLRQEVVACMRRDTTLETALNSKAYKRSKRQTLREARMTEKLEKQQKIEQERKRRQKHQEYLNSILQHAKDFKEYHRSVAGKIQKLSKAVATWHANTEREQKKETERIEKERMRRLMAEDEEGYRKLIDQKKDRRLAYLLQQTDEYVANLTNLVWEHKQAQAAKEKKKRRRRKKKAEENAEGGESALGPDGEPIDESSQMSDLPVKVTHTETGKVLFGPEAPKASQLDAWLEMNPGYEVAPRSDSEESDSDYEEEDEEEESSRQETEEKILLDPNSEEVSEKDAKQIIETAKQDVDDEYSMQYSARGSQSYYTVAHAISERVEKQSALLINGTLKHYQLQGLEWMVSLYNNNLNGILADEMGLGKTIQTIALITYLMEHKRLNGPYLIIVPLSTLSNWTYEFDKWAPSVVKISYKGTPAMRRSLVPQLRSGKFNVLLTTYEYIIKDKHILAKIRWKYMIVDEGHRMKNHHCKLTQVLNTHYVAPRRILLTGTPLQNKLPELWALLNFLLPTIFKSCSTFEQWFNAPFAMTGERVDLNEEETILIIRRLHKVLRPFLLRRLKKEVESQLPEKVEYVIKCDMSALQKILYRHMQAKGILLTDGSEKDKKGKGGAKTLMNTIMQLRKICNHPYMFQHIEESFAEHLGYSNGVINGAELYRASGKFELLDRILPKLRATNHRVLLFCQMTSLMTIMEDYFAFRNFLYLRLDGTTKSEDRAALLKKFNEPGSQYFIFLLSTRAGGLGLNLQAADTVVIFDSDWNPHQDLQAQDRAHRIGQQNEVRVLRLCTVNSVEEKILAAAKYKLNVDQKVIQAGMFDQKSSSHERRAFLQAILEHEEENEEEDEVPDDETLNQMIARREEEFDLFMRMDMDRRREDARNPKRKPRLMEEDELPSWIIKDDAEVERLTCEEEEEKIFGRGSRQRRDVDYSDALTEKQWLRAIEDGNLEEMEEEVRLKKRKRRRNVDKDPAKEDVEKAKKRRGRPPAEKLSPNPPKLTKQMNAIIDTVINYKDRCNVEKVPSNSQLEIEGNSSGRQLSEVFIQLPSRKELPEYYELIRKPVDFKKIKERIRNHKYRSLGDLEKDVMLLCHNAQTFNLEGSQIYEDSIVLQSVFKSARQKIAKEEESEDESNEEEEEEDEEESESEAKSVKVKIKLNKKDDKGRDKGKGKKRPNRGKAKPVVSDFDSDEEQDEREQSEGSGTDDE
Protocol: Example 53. MSD SMARCA2 Degradation in A549 Cell Line
Cells were seeded into 96-well plates (A549 cells: 2×10^4 cells/well/100 ul media) abd incubated overnight. The next day, 200 nl compound were added into the intermediate plate with Echo (Labcyte 550) from source plate containing a 3-fold serial dilution from top concentration of 1 mM. The culture medium was changed with 80 ul of fresh medium and 80 ul of 2× compound solution was added into the well to make a final concentration of 1000 nM, 333.3 nM, 111.1 nM, 37.04 nM, 12.35 nM, 4.115 nM, 1.372 nM, 0.457 nM, 0.152 nM and 0 nM (DMSO). The wells were mixed and then incubated for 24 hours. The media was aspirated from the cultures and 60 ul pre-chilled PIPA lysis buffer (Boston BioProducts BP-115D) with protease/phosphatase inhibitor (Roche 05892791001/Roche 04906837001) was added into the well to lyze the cells for 20 minutes at 4° C. The MSD plate (L15XA) was coated with 40 ul cell lysate and incubated at 4° C. overnight. The next day, the plate was washed three times with TBST (CST #9997S), 150 ul/well. The MSD plates was blocked with 150 ul blocking buffer per well and shaked for 1 hr at R^†, 600 rpm. The blocking buffer was 3% Blocker A (MSD, R93BA-4) in TBST. The MSD plate was washed three times with 150 ul/well of TBST and 25 ul/well of detection antibody (Rabbit anti-SMARCA2/BRM antibody, 100 μg/ml, ab223735) was added at final concentration of 1 ug/mi diluted in 1% o Blocking buffer and shaken for 1 hour at R^†, 600 rpm. The MSD plate was washed three times with 150 ul/well of TBST and 25 ul/well of SULFO-TAG anti-rabbit antibody (MSD, R32AB-1) was added at final concentration of 1 μg/ml diluted in […] Blocking buffer and shaken for 1 hour at R^†, 600 rpm. The MSD plate was washed three times with 150 ul/well of TBST and 150 ul/well of 2×MSD reading buffer diluted from 4× (MSD, R92TC-2) with water was added. Lastly, the MSD instrument was read.
as §1, with “SMARCA2” for “SMARCA”, “% o)” for “%)”, “(>90% o” for “(>90%”, “(>70-90% o” for “(>70-90%”, “(50-70% o” for “(50-70%”

[3] = target: T2, SMARCA2; test: SMARCA2 Western blot MV4-11 degradation; design: SMARCA2 and SMARCA4 protein degradation in MV4-11 cells; endogenous in cells; host or cells: MV4-11; details: 24 h; for Dmax: MV4-11, MV4-11 cells, read-out: SMARCA2 MSD MV411 degradation 24 h: average Dmax %; for DC50: MV4-11 cells, read-out: SMARCA2 MSD MV411 degradation 24 h: Mean external-Abs DC50

In the case of `Cc1ncsc1-c1cnc(CNC(=O)[C@@H]2C[C@@H](O)CN2C(=O)[C@@H](NC(=O)[C@H]2CC3(C2)C[C@H](N2CCC(c4ccc(N5C6CCC5CN(c5cc(-c7ccccc7O)nnc5N)C6)cc4)CC2)C3)C(C)(C)C)nc1` (stereo partly drawn) [I-25, (2S,4R)-1-((2S)-2-(6-(4-(4-(3-(3-amino-6-(2-hydroxyphenyl)pyridazin-4-yl)-3,8-diazabicyclo [3.2.1]octan-8-yl)phenyl)piperidin-1-yl)spiro[3.3]heptane-2-carboxamido)-3,3-dimethylbutanoyl)-4-hydroxy-N-((5-(4-methylthiazol-5-yl)pyrimidin-2-yl)methyl)pyrrolidine-2-carboxamide], the Dmax [1] is reported as under 50%, the DC50 [1] is reported as over 1000 nM and the Dmax [2] is reported as under 50%. The DC50 [2] was over 1000 nM, the Dmax [3] was under 50% and the DC50 [3] was over 1000 nM.

With `Cc1ncsc1-c1ccc(CNC(=O)[C@@H]2C[C@@H](O)CN2C(=O)[C@@H](c2cc(OCCCCN3CCC(c4cnc(N5C6CCC5CN(c5cc(-c7ccccc7O)nnc5N)C6)nc4)CC3)no2)C(C)C)cc1` [I-55, (2S,4R)-1-((2R)-2-(3-(4-(4-(2-(3-(3-amino-6-(2-hydroxyphenyl)pyridazin-4-yl)-3,8-diazabicyclo[3.2.1]octan-8-yl)pyrimidin-5-yl)piperidin-1-yl)butoxy)isoxazol-5-yl)-3-methylbutanoyl)-4-hydroxy-N-(4-(4-methylthiazol-5-yl)benzyl)pyrrolidine-2-carboxamide] the Dmax [1] was over 90%, the DC50 [1] was under 100 nM and the Dmax [2] was over 90%. For the same compound, the DC50 [2] was under 100 nM, the Dmax [3] was over 90% and the DC50 [3] was under 100 nM.

`Cc1ncsc1-c1ccc(CNC(=O)[C@@H]2C[C@@H](O)CN2C(=O)[C@@H](NC(=O)[C@H]2CCC3(CC2)C[C@H](N2CCC(c4cnc(N5C6CCC5CN(c5cc(-c7ccccc7O)nnc5N)C6)nc4)CC2)C3)C(C)(C)C)cc1` (stereo partly drawn) [I-42, (2S,4R)-1-((2S)-2-(2-(4-(2-(3-(3-amino-6-(2-hydroxyphenyl)pyridazin-4-yl)-3,8-diazabicyclo[3.2.1]octan-8-yl)pyrimidin-5-yl)piperidin-1-yl)spiro[3.5]nonane-7-carboxamido)-3,3-dimethylbutanoyl)-4-hydroxy-N-(4-(4-methylthiazol-5-yl)benzyl)pyrrolidine-2-carboxamide] showed a Dmax [1] of under 50%, a DC50 [1] of over 1000 nM and a Dmax [2] of 70 to 90%. The DC50 [2] was 100 to 500 nM, the Dmax [3] was 70 to 90% and the DC50 [3] was under 100 nM.

`Cc1ncsc1-c1ccc(CNC(=O)[C@@H]2C[C@@H](O)CN2C(=O)[C@@H](NC(=O)[C@H]2CC3(C2)C[C@H](N2CCC(c4ccc(N5C6CCC5CN(c5cc(-c7ccccc7O)nnc5N)C6)cc4)CC2)C3)C(C)(C)C)nc1` (stereo partly drawn) [I-23, (2S,4R)-1-((2S)-2-(6-(4-(4-(3-(3-amino-6-(2-hydroxyphenyl)pyridazin-4-yl)-3,8-diazabicyclo[3.2.1]octan-8-yl)phenyl)piperidin-1-yl)spiro[3.3]heptane-2-carboxamido)-3,3-dimethylbutanoyl)-4-hydroxy-N-((5-(4-methylthiazol-5-yl)pyridin-2-yl)methyl)pyrrolidine-2-carboxamide] showed a Dmax [1] of under 50%, a DC50 [1] of over 1000 nM and a Dmax [2] of under 50%. It also gave a DC50 [2] of over 1000 nM, a Dmax [3] of under 50% and a DC50 [3] of 100 to 500 nM.

`Cc1ncsc1-c1ccc(CNC(=O)[C@@H]2C[C@@H](O)CN2C(=O)[C@@H](NC(=O)[C@H]2CC3(C2)C[C@H](N2CC4(CN(c5cnc(N6C7CCC6CN(c6cc(-c8ccccc8O)nnc6N)C7)nc5)C4)C2)C3)C(C)(C)C)cc1` (stereo partly drawn) [I-12, (2S,4R)-1-((2S)-2-(6-(6-(2-(3-(3-amino-6-(2-hydroxyphenyl)pyridazin-4-yl)-3,8-diazabicyclo[3.2.1]octan-8-yl)pyrimidin-5-yl)-2,6-diazaspiro[3.3]heptan-2-yl)spiro[3.3]heptane-2-carboxamido)-3,3-dimethylbutanoyl)-4-hydroxy-N-(4-(4-methylthiazol-5-yl)benzyl)pyrrolidine-2-carboxamide] was tested, and the DC50 [1] was over 1000 nM, the DC50 [2] was 100 to 500 nM and the DC50 [3] was under 100 nM.

`Cc1ncsc1-c1cnc(CNC(=O)[C@@H]2C[C@@H](O)CN2C(=O)[C@@H](NC(=O)[C@H]2CC3(C2)C[C@H](N2CCC(c4ccc(N5C6CCC5CN(c5cc(-c7ccccc7O)nnc5N)C6)cc4)CC2)C3)C(C)(C)C)cn1` (stereo partly drawn) [I-29, (2S,4R)-1-((2S)-2-(6-(4-(4-(3-(3-amino-6-(2-hydroxyphenyl)pyridazin-4-yl)-3,8-diazabicyclo[3.2.1]octan-8-yl)phenyl)piperidin-1-yl)spiro[3.3]heptane-2-carboxamido)-3,3-dimethylbutanoyl)-4-hydroxy-N-((5-(4-methylthiazol-5-yl)pyrazin-2-yl)methyl)pyrrolidine-2-carboxamide] gave a Dmax [1] of 50 to 70%, a DC50 [1] of over 1000 nM and a Dmax [2] of under 50%. It also gave a DC50 [2] of over 1000 nM, a Dmax [3] of under 50% and a DC50 [3] of over 1000 nM.

In the case of `Cc1ncsc1-c1ccc(CNC(=O)[C@@H]2C[C@@H](O)CN2C(=O)C(c2cc(OCCN3CCC(O[C@H]4C[C@H](Oc5cc(N6C7CCC6CN(c6cc(-c8ccccc8O)nnc6N)C7)ccn5)C4)CC3)no2)C(C)C)cc1` (stereo partly drawn) [I-22, (2S,4R)-1-(2-(3-(2-(4-((1r,3r)-3-((4-(3-(3-amino-6-(2-hydroxyphenyl)pyridazin-4-yl)-3,8-diazabicyclo[3.2.1]octan-8-yl)pyridin-2-yl)oxy)cyclobutoxy)piperidin-1-yl)ethoxy)isoxazol-5-yl)-3-methylbutanoyl)-4-hydroxy-N-(4-(4-methylthiazol-5-yl)benzyl)pyrrolidine-2-carboxamide], the Dmax [1] is reported as over 90%, the DC50 [1] is reported as over 1000 nM and the Dmax [2] is reported as over 90%. For the same compound, the DC50 [2] was 501 to 1000 nM, the Dmax [3] was 70 to 90% and the DC50 [3] was under 100 nM.
